Molecules are shown by their SMILES. Bounds are passed on as bounds.

This note sets out measurements from ChEMBL document CHEMBL1127981, “Novel ether derivatives of alkyl piperidines as potential sigma / 5HT2 antipsychotic agents” (Bioorg Med Chem Lett, 1994).

In experiment [1] the target is D(2) dopamine receptor (Homo sapiens, UniProt P14416). Nature of the experiment: Binding affinity towards Dopamine receptor D2 using [3H]spiperone as radioligand.
Experiment [2] can be described thus: In vivo potency was determined in anti-mescaline scratch assay(peroral administration). It is filed as functional, organism-based.
The target in experiment [3] is Serotonin 2 (5-HT2) receptor (Homo sapiens, UniProt P41595+P28223+P28335). Nature of the experiment: Binding affinity towards 5-HT2 receptor using [3H]ketanserin as radioligand. It is filed as protein assay.
For experiment [4], the target named is Sigma non-opioid intracellular receptor 1 (Homo sapiens, UniProt Q99720). Kind of experiment: Binding affinity towards sigma receptor using [3H](+)-SKF-10047 as radioligand.
Sequence of Sigma non-opioid intracellular receptor 1 (Q99720 whole entry): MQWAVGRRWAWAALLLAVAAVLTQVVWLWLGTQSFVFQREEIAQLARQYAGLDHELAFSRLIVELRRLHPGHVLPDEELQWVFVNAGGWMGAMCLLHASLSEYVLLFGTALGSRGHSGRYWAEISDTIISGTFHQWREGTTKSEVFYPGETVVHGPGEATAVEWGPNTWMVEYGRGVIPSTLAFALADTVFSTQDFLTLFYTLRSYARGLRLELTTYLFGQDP

Sequence of D(2) dopamine receptor (P14416 whole entry): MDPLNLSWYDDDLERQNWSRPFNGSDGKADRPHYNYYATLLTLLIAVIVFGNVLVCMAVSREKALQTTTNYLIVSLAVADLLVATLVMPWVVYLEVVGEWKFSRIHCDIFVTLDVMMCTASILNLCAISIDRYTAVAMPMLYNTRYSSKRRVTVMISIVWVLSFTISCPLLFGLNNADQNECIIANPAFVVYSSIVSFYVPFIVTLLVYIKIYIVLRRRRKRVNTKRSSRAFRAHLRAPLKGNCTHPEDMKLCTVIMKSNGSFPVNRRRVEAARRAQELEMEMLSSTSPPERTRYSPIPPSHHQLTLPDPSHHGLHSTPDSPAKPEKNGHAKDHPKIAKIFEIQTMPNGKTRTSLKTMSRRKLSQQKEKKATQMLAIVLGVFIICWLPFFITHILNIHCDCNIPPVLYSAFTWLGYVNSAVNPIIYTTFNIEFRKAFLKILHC

One may read the Ki as a dissociation constant, usually derived from enzyme kinetics or from competition with a known ligand. Low readings indicate tighter binding, high ones weaker binding. One may read the ED50 as the dose that gives a 50% effect, or the effect in half of the subjects. Low readings indicate an effect at a small dose, high ones a need for a large dose. As for `Fc1ccc(C#CCOCCC2CCN(CCc3ccccc3)CC2)cc1`, the results for the Ki in experiment [1], in experiment [3] and in experiment [4] were 1060 nM, 81 nM and 2 nM, respectively. In experiment [2], this compound yielded a 50% effective dose (ED50) above 10 mg/kg.
The matching figures for `Fc1ccc(/C=C/COCC2CCN(Cc3ccccc3)CC2)cc1`: 2180 nM, 31 nM, 12 nM and 8 mg/kg.
For `C(=C\c1ccccc1)/COCC1CCN(CCc2ccccc2)CC1`, the Ki in experiment [1] is 241 nM; in experiment [3], 250 nM; in experiment [4], 5 nM. Besides, the 50% effective dose (ED50) in experiment [2] is above 5 mg/kg.
The matching figures for `C(#Cc1ccccc1)COCCC1CCN(CCc2ccccc2)CC1`: 131 nM, 21 nM, 7 nM and 4.1 mg/kg.
With `C(=C\c1ccccc1)/COCC1CCN(Cc2ccccc2)CC1`, the Ki in experiment [1] is above 10000 nM; in experiment [3] it was 44 nM; in experiment [4] it was 7 nM. In experiment [2], the ED50 came to 6 mg/kg.
The like results for `C(=C\c1ccccc1)/COCC1CCN(Cc2cccc3ccccc23)CC1` were, in that order, above 10000 nM, 284 nM, 8 nM and above 10 mg/kg.
On to `C(COCC1CCN(Cc2ccccc2)CC1)=C(c1ccccc1)c1ccccc1`, for which the Ki in experiment [1] was 620 nM; in experiment [3], 29 nM; in experiment [4], 22 nM. Further, in experiment [2], the 50% effective dose (ED50) was above 30 mg/kg.
The like results for `FC(F)(F)c1ccc(/C=C/COCC2CCN(Cc3ccccc3)CC2)cc1` were, in that order, 4320 nM, 324 nM, 28 nM and above 10 mg/kg.
Take `C(/C=C/c1ccccc1)=C\OCC1CCN(Cc2ccccc2)CC1`: the values for the Ki in experiment [1], in experiment [3] and in experiment [4] were above 10000 nM, 547 nM and 212 nM, respectively.
For `C(#Cc1ccccc1)COCCC1CCN(CC2CC2)CC1`, the inhibition constant Ki in experiment [1] is above 10000 nM; in experiment [3] it was 947 nM; in experiment [4], 1 nM. In addition, the ED50 in experiment [2] was above 10 mg/kg.
The like results for `c1ccc(CCCOCC2CCN(Cc3ccccc3)CC2)cc1` were, in that order, 554 nM, 180 nM, 27 nM and above 30 mg/kg.
`C(=C\c1ccccc1)/COCC1CCN(CCCc2ccccc2)CC1`: the inhibition constant (Ki) was 948 nM in experiment [1], 283 nM in experiment [3] and 18 nM in experiment [4]. In addition, the 50% effect level in experiment [2] (ED50) was put at a dose of 9 mg/kg.
The like results for `C(=C\c1ccccc1)/COCC1CCN(CC2CC2)CC1` were, in that order, above 10000 nM, 1847 nM, 5 nM and above 30 mg/kg.
The like results for `Fc1ccc(CCN2CCC(CCOCC#Cc3ccccc3)CC2)cc1` were, in that order, 1840 nM, 85 nM, 18 nM and 3.6 mg/kg.
The like results for `C(#Cc1ccccc1)COC1CCN(CCc2ccccc2)CC1` were, in that order, 1360 nM, 72 nM, 4 nM and above 10 mg/kg.
Turning to `C(=C/c1ccccc1)/COCC1CCN(Cc2ccccc2)CC1`, the Ki in experiment [1] is above 10000 nM; in experiment [3], above 10000 nM; in experiment [4] it was 90 nM.
In the case of `C(#Cc1ccccc1)COCC1CCN(Cc2ccccc2)CC1`, the inhibition constant Ki in experiment [1] was above 10000 nM; in experiment [3], 254 nM; in experiment [4] it was 4 nM. The compound further showed an ED50 in experiment [2] above 30 mg/kg.
In the case of `C/C=C/CN1CCC(COC/C=C/c2ccccc2)CC1`, the inhibition constant (Ki) in experiment [1] was above 10000 nM; in experiment [3] it was 650 nM; in experiment [4] it was 8 nM. Further, in experiment [2], the ED50 is above 30 mg/kg.
